Source: US20230355622A1, “METHODS OF CHEMOVACCINATION AGAINST PLASMODIUM INFECTIONS” (Merck Sharp & Dohme LLC, priority 2020, published 2023)
pEC50: −log10 of the molar value.

Key:
PMIX [1] = experiment: Cleavage of PMIX substrates RAP1 and ASP in parasite extracts; format: cell-based, P. falciparum
Procedure: To confirm that Example 1A was a dual inhibitor of PMIX and PMX function, the ability of this compound to inhibit cleavage of the known PMIX substrate Rhoptry Associated Protein 1 (RAPI) in parasite extracts was tested (Pino et al., 2017). RAP1 is a merozoite rhoptry protein that is localized to the parasitophorous vacuole after invasion and processed by both PMIX and SUB1 (Pino et al., 2017). […] RAP1 was not released into the parasite supernatant because it was deposited in the parasitophorous vacuole during the invasion process (Baldi, D., Andrews, K., Waller, R., Roos, D., Howard, R., Crabb, B. and Cowman, A. (2000)). RAP1 controls rhoptry targeting of RAP2 in the malaria parasite Plasmodium falciparum. Embo Journal 19, 2435-2443.

PMIX [2] = experiment: Autocatalytic processing of PMIX to p55; format: cell-based; conditions: P. falciparum parasite
Excerpt: The development of Example 1A as a PMIX/PMX dual inhibitor of the P. falciparum parasite has allowed for the analysis of the function of these aspartic acid proteases. To do this, PMIX was processed to a 55 kDa (p55) protein and this was not inhibited by E64.

PMX = PMX (Plasmodium falciparum, UniProt Q8IAS0); set-up: endogenous in cells; conditions: negative control, literature (Salmon et al. 2001); cited from earlier work
parasite = experiment: Parasite LDH growth assay (Parasite Assay), antiparasite potency; format: cell-based; conditions: 72 h, parasite LDH growth assay, ring stage parasites, 72 hours incubation at 37° C.; read-out: EC50
Outline: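 Growth was read by an LDH assay after a freeze–thaw cycle (−80 °C overnight, 4 h thaw at RT). Before that, parasites grew with compound for 72 h at 37 °C under gassed, humidified conditions. The input was a ring-stage culture adjusted to 0.7% parasitemia and 2% haematocrit in serum (5%)/albumax (0.5%)-supplemented RPMI-Hepes.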

[3] = system: PbmCherryLuci sporozoites; experiment: Inhibition of liver to blood transition in C57BL/6 mice (FIG. 8); format: in vivo, Plasmodium berghei
Procedure: 40,000 PbmCherryLuci sporozoites (or the indicated number of sporozoites) were inoculated i.v. and compounds were administered by oral gavage at indicated time points during liver infection. Liver infection levels and egress of parasites from the liver were measured by bioluminescence signal from the parasites using an In Vivo Imaging System (IVIS, Perkin Elmer) at the peak of liver infection (52 hours post infection, hpi), during liver egress (55 hpi) as well as during the first round of blood infection (65 hpi). Initiation of blood infection was also measured by flow cytometry at 65 hpi using the mCherry reporter to determine the parasitemia of this first round of blood infection. These analyses allowed quantification of the efficacy of drug killing of parasites in the liver (52 hpi), preventing their egress from the liver (55 hpi) or preventing their successful infection of the blood (65 hpi). Mice were monitored by giemsa stained thin blood smears for the presence of parasites in the blood for 30 days post infection. If no blood infection was seen during the subsequent 30 days, mice were declared cured of malaria infection.
C57BL/6 mice were administered Example 1A or Example 75A as described in the general experimental procedure.

PbmCherryLuci = experiment: Prime/boost immunisation of C57BL/6 mice with Example 75A, mosquito bite challenge (FIG. 9); format: in vivo, Plasmodium berghei; conditions: female C57BL/6, prime/boost, 2 x 500 mg/kg P.O. at 36 and 48 h; 10 mosquito bites at 12 weeks after prime
Procedure: To investigate if chemoprophylaxis with Example 75A would serve as a chemovaccination as does Example IA, female C57BL/6 mice were immunized using a prime/boost regimen. The first immunisation was with 40,000 PbmCherryLuci salivary gland sporozoites i.v. followed by two doses of Example 75A at 500 mg/kg P.O. (given at 36 and 48 hours post infection). The second immunisation (boost) was six weeks later, this time with 20,000 PbmCherryLuci sporozoites but with Example 75A treatment as for the prime immunisation. Six weeks after the boost immunisation (twelve weeks after the prime immunisation) the immunised mice were challenged with the bites of 10 PbmCherryLuci infected mosquitoes for 15 minutes. Giemsa stained thin blood smears were analysed until day 30 for the presence of parasites in the blood and mice were considered to be protected from infection if no blood parasites were observed within the 30 days post mosquito bite challenge.

PMX, sequence (Q8IAS0 222-573): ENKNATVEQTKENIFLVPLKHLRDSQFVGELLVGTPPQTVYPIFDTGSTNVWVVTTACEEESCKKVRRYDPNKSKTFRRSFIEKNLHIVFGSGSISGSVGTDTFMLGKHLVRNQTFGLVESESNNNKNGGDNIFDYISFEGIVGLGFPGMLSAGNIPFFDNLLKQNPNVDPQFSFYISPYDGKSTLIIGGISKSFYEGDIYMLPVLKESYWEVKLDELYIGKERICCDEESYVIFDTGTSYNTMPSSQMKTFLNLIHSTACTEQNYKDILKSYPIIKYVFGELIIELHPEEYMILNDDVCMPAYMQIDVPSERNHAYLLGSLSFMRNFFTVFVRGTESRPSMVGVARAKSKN

| Structure (SMILES) | pEC50 (parasite) | also measured |
| --- | --- | --- |
| CC(C)C[C@H](NC(=O)[C@H]1O[C@@H]1C(=O)O)C(=O)NCCCCN=C(N)N [Example E64, reference compound] |  | RAP1 processing by PMIX and SUB1 (PMIX [1]; treated parasites/merozoites, processed forms p82 and p69, unprocessed p87): processed normally by PMIX and SUB1; Apical Sushi Protein (ASP) processing by PMIX (PMIX [1]; treated parasites, p47 processed, p87 full-length): processed into a 47 kDa polypeptide (p47); PMIX processing to 55 kDa (p55) protein (PMIX [2]): not inhibited; SERA5 processing (PMX): does not affect SERA5 processing |
| CCC1(CC)CC(=O)N([C@H]2c3cc(C(=O)N[C@@H]4c5ccccc5C[C@H]4O)ccc3O[C@@]2(C)COC)C(=N)N1 [Example 75A, (2R,3S)-3-(4,4-diethyl-2-imino-6-oxotetrahydropyrimidin-1(2H)-yl)-N-((1R,2R)-2-hydroxy-2,3-dihydro-1H-inden-1-yl)-2-(methoxymethyl)-2-methyl-2,3-dihydrobenzofuran-5-carboxamide] | 9.40 | mice protected ([3]; 300 mg/kg): 8 mice; mice protected ([3]; 500 mg/kg): 10/11; detection of parasites in the blood ([3]; lower doses (below 300 mg/kg)): large delays in the detection of parasites in the blood; sterile protection from reinfection (PbmCherryLuci): 100% |
| C[C@@H]1C[C@@H](N2C(=N)NC(C)(C)CC2=O)c2cc(C(=O)N[C@@H]3c4ccccc4OC(C)(C)[C@H]3O)ccc21 [Example 138, (1R,3R)-N-[(3S,4R)-3-hydroxy-2,2-dimethyl-chroman-4-yl]-3-(2-imino-4,4-dimethyl-6-oxo-hexahydropyrimidin-1-yl)-1-methyl-indane-5-carboxamide] | 9.05 |  |
| CCC1(CC)CC(=O)N([C@@H]2CCc3ccc(C(=O)N[C@@H]4c5ccccc5OC(C)(C)[C@H]4O)cc32)C(=N)N1 [Example 159, (3R)-3-(4,4-diethyl-2-imino-6-oxo-hexahydropyrimidin-1-yl)-N-[(3S,4R)-3-hydroxy-2,2-dimethyl-chroman-4-yl]indane-5-carboxamide] | 9.30 |  |
| CC1(C)CC(=O)N([C@@H]2CCOc3ccc(C(=O)N[C@@H]4c5cc(F)ccc5OC(C)(C)[C@H]4O)cc32)C(=N)N1 [Example 189, (4R)-N-[(3S,4R)-6-fluoro-3-hydroxy-2,2-dimethyl-chroman-4-yl]-4-(2-imino-4,4-dimethyl-6-oxo-hexahydropyrimidin-1-yl)chromane-6-carboxamide] | 9.00 |  |
| CCC1(CC)CC(=O)N([C@@H]2C[C@@H](OC)c3ccc(C(=O)N[C@@H]4c5ccccc5OC(C)(C)[C@H]4O)cc32)C(=N)N1 [Example 236, (1R,3R)-3-(4,4-diethyl-2-imino-6-oxo-hexahydropyrimidin-1-yl)-N-[(3S,4R)-3-hydroxy-2,2-dimethyl-chroman-4-yl]-1-methoxy-indane-5-carboxamide] | 9.05 |  |
| CC1(C)CC(=O)N(C2c3cc(C(=O)N[C@@H]4c5ccccc5C[C@H]4O)ccc3CC2(C)C)C(=N)N1 (stereo partly drawn) [Example 87, N-[(1R,2R)-2-hydroxyindan-1-yl]-3-(2-imino-4,4-dimethyl-6-oxo-hexahydropyrimidin-1-yl)-2,2-dimethyl-indane-5-carboxamide] | 6.98 |  |
| CCC1(CC)CC(=O)N([C@H]2c3cc(C(=O)N[C@@H]4c5ccccc5OC(C)(C)[C@H]4O)ccc3OC2(C)C)C(=N)N1 [Example 245, (3S)-3-(4,4-diethyl-2-imino-6-oxo-hexahydropyrimidin-1-yl)-N-[(3S,4R)-3-hydroxy-2,2-dimethyl-chroman-4-yl]-2,2-dimethyl-3H-benzofuran-5-carboxamide] | 9.10 |  |
| CCC1(CC)CC(=O)N([C@@H]2CCOc3ccc(C(=O)N[C@@H](C)c4ccccc4OC)cc32)C(=N)N1 [Example 111, (4R)-4-(4,4-diethyl-2-imino-6-oxo-hexahydropyrimidin-1-yl)-N-[(1S)-1-(2-methoxyphenyl)ethyl]chromane-6-carboxamide] | 7.05 |  |
| CCC1(CC)CC(=O)N([C@@H]2CCOc3ccc(C(=O)N[C@@H]4c5cc(Br)ccc5OC(C)(C)[C@H]4O)cc32)C(=N)N1 [Example 15A, (R)-N-((3S,4R)-6-bromo-3-hydroxy-2,2-dimethylchroman-4-yl)-4-(4,4-diethyl-2-imino-6-oxotetrahydropyrimidin-1(2H)-yl)chromane-6-carboxamide] | 9.52 |  |
| CCC1(CC)CC(=O)N([C@@H]2CC3(COC3)Oc3ccc(C(=O)N[C@H]4CC(C)(C)Oc5ccccc54)cc32)C(=N)N1 [Example 22A, (R)-4-(4,4-diethyl-2-imino-6-oxotetrahydropyrimidin-1(2H)-yl)-N-((S)-2,2-dimethylchroman-4-yl)spiro[chromane-2,3′-oxetane]-6-carboxamide] | 9.15 |  |
